According to US20070275911A1, “Targeted Drug-Formaldehyde Conjugates and Methods of Making and Using the Same” (priority 2003, published 2007):
Where two headings read alike, the source gives them in different places.

Columns and labels:
AR-GFP receptor = format: cell-based; settings: for inhibition of the action of 1.0 nM Mibolerone on AR-GFP: co-treatment with 1.0 nM Mibolerone
Procedure: PC3 cells were, therefore, grown in 6 well plates and transiently transfected with a plasmid containing the AR-GFP construct obtained from Dr. Arun Roy (UTHSC; San Antonio, Tex.).
This cell suspension was dispensed in 2 mL aliquots into 6-well tissue culture plates. […] To each solution was added 2 μL of a 800 μg/mL solution of the pEGFP-C2 rcAR plasmid in Millipore water. After gentle mixing, the transfection cocktail was allowed to incubate at room temperature for 40 min. […] The growth medium was again replaced with 1 mL of phenol red-free RPMI supplemented with dextran-coated charcoal-stripped FBS. Candidate AR-GFP expressing cells in each well were identified and marked before an appropriate concentrations of the test compounds were added in 10 μL of sterile DMSO.

human AR = target: T1, human AR (Homo sapiens, UniProt P10275); experiment: biochemical; format: binding
T1 construct: expressed in transfected cells; host or cells: PC3/AR cells (gift of Dr. Kerry Burnstein, University of Miami); cytosolic fraction of sonicated lysate
T1 sequence (P10275 1-920): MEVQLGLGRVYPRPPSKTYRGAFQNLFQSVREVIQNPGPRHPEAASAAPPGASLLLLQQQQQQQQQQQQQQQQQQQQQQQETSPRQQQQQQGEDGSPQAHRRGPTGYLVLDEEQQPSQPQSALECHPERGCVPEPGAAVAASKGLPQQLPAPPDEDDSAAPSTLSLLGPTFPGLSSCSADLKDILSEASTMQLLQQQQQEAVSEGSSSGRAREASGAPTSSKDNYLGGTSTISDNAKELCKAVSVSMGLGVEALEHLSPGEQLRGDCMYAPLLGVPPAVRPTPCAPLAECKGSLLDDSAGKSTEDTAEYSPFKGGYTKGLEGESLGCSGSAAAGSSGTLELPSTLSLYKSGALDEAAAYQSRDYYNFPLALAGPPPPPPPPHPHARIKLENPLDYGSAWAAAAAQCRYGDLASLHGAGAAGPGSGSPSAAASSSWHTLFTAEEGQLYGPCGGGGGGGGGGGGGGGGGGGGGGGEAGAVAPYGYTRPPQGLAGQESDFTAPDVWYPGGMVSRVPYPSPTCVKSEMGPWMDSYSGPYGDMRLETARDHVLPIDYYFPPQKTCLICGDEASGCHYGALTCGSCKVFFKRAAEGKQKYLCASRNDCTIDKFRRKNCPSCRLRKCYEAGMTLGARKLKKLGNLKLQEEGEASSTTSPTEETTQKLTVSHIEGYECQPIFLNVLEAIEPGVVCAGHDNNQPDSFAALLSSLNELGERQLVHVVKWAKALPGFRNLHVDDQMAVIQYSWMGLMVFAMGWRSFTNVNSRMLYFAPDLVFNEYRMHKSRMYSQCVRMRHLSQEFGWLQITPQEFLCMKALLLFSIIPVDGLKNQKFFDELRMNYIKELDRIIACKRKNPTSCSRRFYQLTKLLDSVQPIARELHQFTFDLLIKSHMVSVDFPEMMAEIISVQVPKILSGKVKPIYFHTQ

estrogen receptor = target: T2, estrogen receptor (Homo sapiens, UniProt P03372); experiment: Estrogen receptor competitive binding assay (3H-E2, MCF-7 cell lysate); settings: relative to E/Z-4-OHT = 100
T2 construct: endogenous in cells; host or cells: MCF-7 cells (ATCC); 225,000 g supernatant of sonicated lysate

PC3/AR and PC3/neo cells = settings: for intracellular distribution of fluorescence over time: 3 h treatment / over time
Procedure: The fluorescence of doxorubicin can be monitored in order to determine the rate of uptake and intracellular distribution of the anthraquinone fluorophore.
This cell suspension was dispensed in 2 mL aliquots into 6-well tissue culture plates. Plates were then incubated for 36 h at 37° C. in a humidified atmosphere of 5% CO2 and 95% air. The medium was replaced with 1 mL of phenol red-free RPMI 1640 growth medium supplemented with 10% dextran-coated charcoal stripped FBS prior to addition of the test compound. The appropriate compound was dissolved in DMSO and the concentration was adjusted to 50-200 μM by measuring the solution absorbance at 480 nm. Addition of 10 μL of the appropriate doxorubicin or prodrug solution was followed by incubation at 37° C. as indicated. The drug solution in individual wells was removed at the appropriate time and the cells were washed with 1 mL of the phenol red-free growth medium. The washed cells were then supplemented with 1 mL of phenol-red free growth medium for imaging.

[1] = Hydrolysis of anthracycline-formaldehyde N-Mannich bases followed by HPLC; settings: for stability under AR binding assay conditions: reaction buffer, 30 min incubation at 4° C., HPLC
Procedure: The area under the curve for the N-Mannich base was determined at each time point and was used to establish the kinetics of decomposition, using regression software. Hydrolysis of AOM-doxsaliform was carried out in pH 8.0 100 mM sodium phosphate buffer at 37° C. AOM-doxsaliform was dissolved in 48.0 μL DMSO and this solution was diluted into phosphate buffer to give 4.8 mL of an […] solution containing 1% DMSO. To this solution was added 6 μL of pig liver esterase (0.8 units/μL; Sigma; Milwaukee, Wis.) to achieve a final concentration of 1.0 units/mL. […] Brief centrifugation served to pellet the insoluble fraction. The drug solution was then transferred to a round bottom flask and concentrated by brief rotary-evaporation at 20° C. Reverse phase HPLC was used to analyze the extent of hydrolysis.
Hydrolysis of the N-Mannich bases, prepared from either doxorubicin or daunorubicin and the respective amides, at 37° C. in pH 7.4 triethylammonium acetate (TEAA) buffer (20 mM) containing 10-30% MeOH was monitored by reverse phase HPLC. […] Identification of a less robust construct that could be used to rapidly deliver the active Schiff base metabolite of doxorubicin to a growing tumor was undertaken.

[2] = vs 1.0 nM 3H-Mibolerone, PC3/AR cell lysate, 4° C. (Table 4, Example 3 numbering)
[3] = vs 1.0 nM 3H-Mibolerone, PC3/AR cell lysate, 4° C., 30 min (Table 3, Example 2 numbering)
[4] = relative binding affinity (Table 4, Example 3 numbering)

T2 sequence (P03372 whole entry): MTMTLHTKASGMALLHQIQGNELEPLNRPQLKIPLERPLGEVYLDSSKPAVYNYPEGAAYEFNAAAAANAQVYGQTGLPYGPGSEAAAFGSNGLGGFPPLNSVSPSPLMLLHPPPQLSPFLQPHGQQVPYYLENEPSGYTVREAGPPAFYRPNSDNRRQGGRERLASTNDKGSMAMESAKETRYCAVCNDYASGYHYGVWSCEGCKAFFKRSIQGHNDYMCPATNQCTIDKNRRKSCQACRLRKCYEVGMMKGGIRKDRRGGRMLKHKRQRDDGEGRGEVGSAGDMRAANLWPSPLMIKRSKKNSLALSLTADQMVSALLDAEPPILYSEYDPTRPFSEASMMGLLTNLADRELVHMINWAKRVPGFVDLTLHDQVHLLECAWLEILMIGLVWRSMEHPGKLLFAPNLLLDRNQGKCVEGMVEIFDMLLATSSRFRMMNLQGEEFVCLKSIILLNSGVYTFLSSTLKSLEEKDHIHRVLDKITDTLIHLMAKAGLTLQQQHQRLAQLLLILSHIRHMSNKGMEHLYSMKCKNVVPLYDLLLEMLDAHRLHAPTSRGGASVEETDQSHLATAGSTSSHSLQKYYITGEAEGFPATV

CC1(C)NC(=O)N(c2ccc(C#N)c(C(F)(F)F)c2)C1=O [2f, 4-(4,4-Dimethyl-2,5-dioxo-imidazolidin-1-yl)-2-trifluoromethylbenzonitrile]
nuclear translocation of AR-GFP (AR-GFP receptor; concentration not given): induce partial translocation | IC50 (human AR): 6 nM | RBA (human AR): 150 | RBA as fraction of nilutamide binding (human AR): 150%

CCCC(=O)OCOc1ccc(COCC#CCN2C(=O)N(c3ccc(C#N)c(C(F)(F)F)c3)C(=O)C2(C)C)cc1C(N)=O [6b]
nuclear translocation of AR-GFP (AR-GFP receptor; concentration not given): causing nuclear translocation of the AR upon binding

CC1(C)C(=O)N(c2ccc(C#N)c(C(F)(F)F)c2)C(=O)N1CCOCCOCc1ccc(O)c(C(N)=O)c1 [8a, 5-(2-{2-[3-(4-Cyano-3-trifluoromethyl-phenyl)-5,5-dimethyl-2,4-dioxo-imidazolidin-1-yl]-ethoxy}-ethoxymethyl)-2-hydroxy-benzamide]
IC50 (human AR; [2]): 77 nM | IC50 (human AR; [3]): 77 nM

CC1(C)C(=O)N(c2ccc(C#N)c(C(F)(F)F)c2)C(=O)N1CCOCCOCCOCc1ccc(O)c(C(N)=O)c1 [8b, 5-[2-(2-{2-[3-(4-Cyano-3-trifluoromethyl-phenyl)-5,5-dimethyl-2,4-dioxo-imidazolidin-1-yl]-ethoxy}-ethoxy)-ethoxymethyl]-2-hydroxy-benzamide]
IC50 (human AR; [2]): 332 nM | IC50 (human AR; [3]): 332 nM

CC1(C)C(=O)N(c2ccc(C#N)c(C(F)(F)F)c2)C(=O)N1CC#CCOCc1ccc(O)c(C(N)=O)c1 [8c, 5-{4-[3-(4-Cyano-3-trifluoromethyl-phenyl)-5,5-dimethyl-2,4-dioxo-imidazolidin-1-yl]-but-2-ynyloxymethyl}-2-hydroxy-benzamide]
IC50 (human AR; [3]): 49 nM

CCC(=C(c1ccc(O)cc1)c1ccc(OCCN(C)CCON=Cc2ccc(O)c(C(N)=O)c2)cc1)c1ccccc1 [10a]
RBA^OHT (estrogen receptor): 1.7

CCC(=C(c1ccc(O)cc1)c1ccc(OCCN(C)CCOCCON=Cc2ccc(O)c(C(N)=O)c2)cc1)c1ccccc1 [10b, E/Z-2-Hydroxy-5-[(2-{2-[(2-{4-[1-(4-hydroxy-phenyl)-2-phenyl-but-1-enyl]-phenoxy}-ethyl)-methyl-amino]-ethoxy}-ethoxyimino)-methyl]-benzamide]
RBA^OHT (estrogen receptor): 3.3

CCC(=C(c1ccc(O)cc1)c1ccc(OCCN(C)CCOCCOCCON=Cc2ccc(O)c(C(N)=O)c2)cc1)c1ccccc1 [10c]
RBA^OHT (estrogen receptor): 3.3

CC1(C)C(=O)N(c2ccc(C#N)c(C(F)(F)F)c2)C(=O)N1CCCCN1CCN(CCOCc2ccc(O)c(C(N)=O)c2)CC1 [12a, 5-[2-(4-{4-[3-(4-Cyano-3-trifluoromethyl-phenyl)-5,5-dimethyl-2,4-dioxo-imidazolidin-1-yl]-butyl}-piperazin-1-yl)-ethoxymethyl]-2-hydroxy-benzamide]
inhibition of the action of 1.0 nM Mibolerone on AR-GFP (AR-GFP receptor): not capable of inhibiting the action of 1.0 nM Mibolerone | nuclear translocation of AR-GFP (AR-GFP receptor; concentration not given): does not instigate translocation | RBA (human AR): <1 | RBA (human AR; [4]): <1 | IC50 (human AR; [2]): > 1000 nM

CC1(C)C(=O)N(c2ccc(C#N)c(C(F)(F)F)c2)C(=O)N1CCOCCN1CCN(CCOCc2ccc(O)c(C(N)=O)c2)CC1 [12b]
inhibition of the action of 1.0 nM Mibolerone on AR-GFP (AR-GFP receptor): not capable of inhibiting the action of 1.0 nM Mibolerone | nuclear translocation of AR-GFP (AR-GFP receptor; concentration not given): does not instigate translocation | RBA (human AR): 3 | RBA (human AR; [4]): 3 | IC50 (human AR; [2]): 346 nM | IC50 (human AR; [3]): 346 nM

COc1cccc2c1C(=O)c1c(O)c3c(c(O)c1C2=O)C[C@@](O)(C(=O)CO)C[C@@H]3O[C@H]1C[C@H](NCNC(=O)c2ccccc2OCOC(C)=O)[C@H](O)[C@H](C)O1 [AOM-doxsaliform, N-[(2-Acetoxymethyloxy)-benzamidomethyl]-doxorubicin]
intracellular distribution of fluorescence over time (PC3/AR and PC3/neo cells): accumulate, at least to some extent over time (>3 h), in the nuclei | release of doxorubicin from acetoxymethylene-protected derivative ([1]; 37° C., pH 7.3 RPMI 1640, 3 h of observation): no hydrolysis was evident

C[C@@H]1CC2=CC(=O)CC[C@@H]2[C@H]2CC[C@@]3(C)[C@@H](CC[C@]3(C)O)[C@@H]21 [Mibolerone, reference compound]
nuclear translocation of AR-GFP (AR-GFP receptor; 1.0 nM): causes nuclear translocation of the AR-GFP receptor

CCCC(=O)OCOc1ccc(COCC#CCN2C(=O)N(c3ccc(C#N)c(C(F)(F)F)c3)C(=O)C2(C)C)cc1C(=O)NCNC1CC(OC2CC(O)(C(=O)CO)Cc3c(O)c4c(c(O)c32)C(=O)c2c(OC)cccc2C4=O)OC(C)C1O (stereo not shown) [compound 10, N-(5-{4-[3-(4-Cyano-3-trifluoromethyl-phenyl)-5,5-dimethyl-2,4-dioxo-imidazolidin-1-yl]-but-2-ynyloxymethyl}-2-butyryloxymethoxybenzamidomethyl)-doxorubicin]
intracellular distribution of fluorescence over time (PC3/AR and PC3/neo cells): remains primarily cytosolic over time | initial intracellular distribution of fluorescence (PC3/AR and PC3/neo cells; upon initial treatment, 500 nM): predominantly cytosolic | nuclear translocation of AR-GFP (AR-GFP receptor; 1.0 μM (up to)): did not instigate translocation into the nucleus | inhibition of the action of 1.0 nM Mibolerone on AR-GFP (AR-GFP receptor): did serve to inhibit the action of 1.0 nM Mibolerone | stability under AR binding assay conditions [1]: stable under the assay conditions | RBA (human AR; [4]): 14 | IC50 (human AR; [2]): 63 nM

COc1cccc2c1C(=O)c1c(O)c3c(c(O)c1C2=O)C[C@@](O)(C(=O)CO)C[C@@H]3OC1C[C@H](NCNC(=O)c2cc(COCC#CCN3C(=O)N(c4ccc(C#N)c(C(F)(F)F)c4)C(=O)C3(C)C)ccc2O)[C@H](O)[C@H](C)O1 (stereo partly shown) [compound 13, N-(5-{4-[3-(4-Cyano-3-trifluoromethyl-phenyl)-5,5-dimethyl-2,4-dioxo-imidazolidin-1-yl]-but-2-ynyloxymethyl)-2-hydroxy-benzamidomethyl)-doxorubicin]
intracellular distribution of fluorescence over time (PC3/AR and PC3/neo cells): primarily localized to the nucleus | stability under AR binding assay conditions [1]: no appreciable hydrolysis | stability under AR binding assay conditions ([1]; listed as 9): stable under the assay conditions | IC50 (human AR): 90 nM | RBA (human AR): 10 | RBA (human AR; [4]): 10
